Measured values from patent US9687529B2, “Method of controlling coagulation” (Duke University, priority 2011, dated 2017).
Where “and” joins values, the source holds several entries; their conditions need not be identical. Equal values may be shown once.

Legend:
[1] = system: clot formation in whole blood; assay: Thromboelastography (TEG), whole blood stimulated with tissue factor; format: cell-based, human
Procedure: (§1) Blood was drawn from healthy, consented volunteers under a Duke University Institutional Review Board approved protocol and anticoagulated with 3.2% sodium citrate. Whole blood (320 μL) was mixed with anticoagulant (heparin or aptamers) (10 μL) and kaolin (Haemonetics, Niles, Ill.) (10 μL) or CAT PRP reagent (Diagnostica Stago, 0.33 ρM TF final) (10 μL) was added to stimulate clotting. CaCl2 (20 μL) was immediately added to overcome the citrate, the mixture was added to a plain disposable plastic TEG cup (Haemonetics), and the assay was run according to the manufacturer's instructions. Clot formation at 37° C. was measured with a Thromboelastograph Analyzer (Haemonetics, Niles, Ill.) until a stable clot was formed (i.e., a maximum amplitude was reached) or for three hours with the aptamer combinations. The time lag time, α-angle, and maximum amplitude were automatically calculated by the TEG® Analytical Software version 4.2.3 (Haemonetics).
Because kaolin stimulates blood via the intrinsic pathway, it is unlikely that 7S-1 (FVIIa aptamer) would impair clot formation with this type of stimulation; thus, this aptamer was tested in a modified TEG with TF stimulation. CAT platelet rich plasma (PRP) reagent (TF) was diluted to a final concentration of 0.33 ρM TF to stimulate clotting.

[2] = system: clot formation in whole blood; assay: Thromboelastography (TEG), whole blood stimulated with kaolin; format: cell-based, human
Procedure: as §1
Although the aPTT, PT, and CAT assays provide basic information about dose-dependent anticoagulation, these assays are performed in an environment that lacks platelets. Platelets play a crucial role in clot formation by providing a membrane surface upon which the clotting factors assemble, by aggregating and becoming physically incorporated into the blood clot, and by releasing internal stores of agonists that amplify coagulation (Monroe et al, Arterioscler Thromb Vasc Biol 22:138 1-9 (2002)). Therefore, a study was made of aptamer anticoagulation with thromboelastography (TEG), which provides real-time information about the kinetics of clot formation in whole blood (Reikvam et al, Transfus Apher Sci; 40:119-23 (2009). The TEG assay uses mechanical motion to quantify the physical properties of clot formation, including the lag time (the time until clot formation), the α-angle (the rate of clot formation), and the maximum amplitude (the mechanical strength of the clot formed).

[3] = system: fibrin deposition on oxygenator membrane; assay: Oxygenator membrane scanning electron microscopy; design: species or system human; settings: FIG. 25 doses: UFH 5 U/mL, 9.3T 1 μM, 11F7T 2 μM, R9D-14T 5 μM, 11F7T 0.5 μM+R9D-14T 5 μM
Procedure: After 2 hours of circulation (or until there was visible clot formation), the minicircuit was washed with three volumes (approximately 60 mL) of PBS at a flow rate of 50 mL/min. The oxygenator membrane was removed with forceps, washed with gentle rocking in PBS for approximately 30 sec, then removed and blotted. Three pieces approximately 10 mm×10 mm were excised from different areas of the membrane with a clean razor blade. The membrane pieces were fixed overnight in PBS with 4% formaldehyde and 2% glutaraldehyde, washed two times with PBS, then dehydrated in an ethanol gradient (30% to 100%). The membranes were subsequently submerged in tetramethylsilane (TMS) for 10 min, then removed and placed in a desiccator overnight. Desiccated membrane specimens measuring approximately 10 mm×7 mm were affixed with double sided tape to circular metal stubs approximately 14 mm in diameter. The specimens were gold sputter coated in a Denton Vacuum Desk IV® (Denton Vacuum LLC, Moorestown, N.J.) according to the manufacturer's instructions. The scanning electron microscopic (SEM) images were obtained with a FEI XL 30 FE SEM (FEI, Hillsboro, Oreg.).

| Substance | Angle ([2]; RNA 2.0 μM) | Lag-time ([2]; RNA 2.0 μM) | Max. Amplitude ([2]; RNA 2.0 μM) | fibrin deposition on oxygenator membrane, scanning electron micrographs (in words) [3] | Angle ([2]; RNA 0.5 μM) | Lag-time ([2]; RNA 0.5 μM) | Max. Amplitude ([2]; RNA 0.5 μM) | Angle ([2]; RNA 1.0 μM) | Lag-time ([2]; RNA 1.0 μM) | Max. Amplitude ([2]; RNA 1.0 μM) | also measured |
| --- | --- | --- | --- | --- | --- | --- | --- | --- | --- | --- | --- |
| R9D-14T: prothrombin/thrombin aptamer, 58-base truncation of RNA9D-14, SEQ ID NO: 3 (GGCGGTCGATCACACAGTTCAAACGTAATAAGCCAATGTACGAGGCAGACGACTCGCC; 2'-fluoro at CT, RNA at AG, backbone and T or U not given here) [Aptamer R9D-14T] | 48.1 ± 9.7 deg | 8.3 ± 2.0 min | 56.0 ± 6.3 mm | obvious fibrin deposition on the membrane |  |  |  |  |  |  | Angle ([1]; RNA 5.00 μM): 15.2 deg and 15.2 ± 2.5 deg; Lag-time ([1]; RNA 5.00 μM): 39.4 min and 39.4 ± 5.0 min; Max. Amplitude ([1]; RNA 5.00 μM): 36.8 mm and 36.8 ± 1.4 mm; Angle ([2]; RNA 1.25 μM): 60.4 ± 2.4 deg; Lag-time ([2]; RNA 1.25 μM): 7.1 ± 1.4 min; Max. Amplitude ([2]; RNA 1.25 μM): 62.0 ± 3.0 mm; Angle ([2]; RNA 5.0 μM): 30 deg and 30.0 ± 5.7 deg; Lag-time ([2]; RNA 5.0 μM): 21.5 min and 21.5 ± 4.9 min; Max. Amplitude ([2]; RNA 5.0 μM): 49.6 mm and 49.6 ± 3.6 mm |
| 11F7T: FXa aptamer, 2'-fluoropyrimidine modified RNA, SEQ ID NO: 2 (GAGAGCCCCAGCGAGAUAAUACUUGGCCCCGCUCUU; 2'-fluoro at CU, RNA at AG, backbone not given here) [Aptamer 11F7T] | 18 deg and 18.0 ± 5.9 deg | 39.6 min and 39.6 ± 9.1 min | 39.6 mm and 39.6 ± 4.4 mm | obvious fibrin deposition on the membrane | 40.3 ± 1.4 deg | 15.6 ± 0.8 min | 52.4 ± 1.6 mm | 28.7 ± 5.0 deg | 20.6 ± 3.0 min | 48.2 ± 3.7 mm | Angle ([1]; RNA 2.00 μM): 21.4 deg and 21.4 ± 7.3 deg; Lag-time ([1]; RNA 2.00 μM): 51.1 min and 51.1 ± 12.2 min; Max. Amplitude ([1]; RNA 2.00 μM): 51.1 mm and 51.1 ± 1.6 mm |
| 9.3T: FIXa aptamer, 2'-fluoropyrimidine modified RNA, SEQ ID NO: 1 (AUGGGGACUAUACCGCGUAAUGCUGCCUCCCCAU; 2'-fluoro at CU, RNA at AG, backbone not given here) [Aptamer 9.3T] | 36.9 ± 2.9 deg | 29.9 ± 1.4 min | 55.9 ± 3.4 mm | obvious fibrin deposition on the membrane | 41.4 ± 0.5 deg | 22.8 ± 2.0 min | 55.4 ± 3.2 mm | 37.6 deg and 37.6 ± 7.1 deg | 25.5 min and 25.5 ± 1.8 min | 55.4 mm and 55.4 ± 2.6 mm | Angle ([1]; RNA 1.00 μM): 66.3 deg and 66.3 ± 1.3 deg; Lag-time ([1]; RNA 1.00 μM): 4.5 min and 4.5 ± 0.5 min; Max. Amplitude ([1]; RNA 1.00 μM): 69.1 mm and 69.1 ± 1.5 mm |
